{
  "source": "paper PMC4979471",
  "about": "(Cell Death Discovery, 2015)",
  "test_in_all_cases": "Kinase selectivity, P33-radiolabeled assay",
  "type_in_all_cases": "biochemical",
  "settings_in_all_cases": "10 μM ATP",
  "key": {"WEE1": {"target": "T1, WEE1 (Homo sapiens, UniProt P30291)", "T1 construct": "purchased Reaction Biology Corp", "T1 sequence (P30291 whole entry)": "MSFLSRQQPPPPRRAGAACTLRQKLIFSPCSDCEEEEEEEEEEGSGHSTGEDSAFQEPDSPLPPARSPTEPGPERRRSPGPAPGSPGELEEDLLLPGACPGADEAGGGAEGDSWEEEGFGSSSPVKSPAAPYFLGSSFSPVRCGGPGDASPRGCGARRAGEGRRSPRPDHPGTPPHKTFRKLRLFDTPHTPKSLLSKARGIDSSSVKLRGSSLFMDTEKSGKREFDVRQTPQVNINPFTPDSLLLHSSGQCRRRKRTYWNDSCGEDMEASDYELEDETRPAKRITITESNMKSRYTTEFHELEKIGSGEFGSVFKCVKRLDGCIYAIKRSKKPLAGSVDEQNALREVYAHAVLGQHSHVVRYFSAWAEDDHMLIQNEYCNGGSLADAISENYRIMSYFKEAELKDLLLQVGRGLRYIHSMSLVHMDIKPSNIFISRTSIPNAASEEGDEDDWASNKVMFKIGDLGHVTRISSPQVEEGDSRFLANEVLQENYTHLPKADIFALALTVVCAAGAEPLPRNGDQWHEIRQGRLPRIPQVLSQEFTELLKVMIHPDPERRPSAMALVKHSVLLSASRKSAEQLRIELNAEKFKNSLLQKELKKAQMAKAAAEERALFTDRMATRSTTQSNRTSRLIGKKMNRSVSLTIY", "outline": "(§1)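 Percent residual kinase activity versus DMSO is reported. Conditions: compound at 10 μM, ATP at 10 μM, n = 2.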"}, "DLK/MAP3K12": {"target": "T2, DLK/MAP3K12 (Homo sapiens, UniProt Q12852)", "T2 construct": "purchased Reaction Biology Corp", "T2 sequence (Q12852 1-859)": "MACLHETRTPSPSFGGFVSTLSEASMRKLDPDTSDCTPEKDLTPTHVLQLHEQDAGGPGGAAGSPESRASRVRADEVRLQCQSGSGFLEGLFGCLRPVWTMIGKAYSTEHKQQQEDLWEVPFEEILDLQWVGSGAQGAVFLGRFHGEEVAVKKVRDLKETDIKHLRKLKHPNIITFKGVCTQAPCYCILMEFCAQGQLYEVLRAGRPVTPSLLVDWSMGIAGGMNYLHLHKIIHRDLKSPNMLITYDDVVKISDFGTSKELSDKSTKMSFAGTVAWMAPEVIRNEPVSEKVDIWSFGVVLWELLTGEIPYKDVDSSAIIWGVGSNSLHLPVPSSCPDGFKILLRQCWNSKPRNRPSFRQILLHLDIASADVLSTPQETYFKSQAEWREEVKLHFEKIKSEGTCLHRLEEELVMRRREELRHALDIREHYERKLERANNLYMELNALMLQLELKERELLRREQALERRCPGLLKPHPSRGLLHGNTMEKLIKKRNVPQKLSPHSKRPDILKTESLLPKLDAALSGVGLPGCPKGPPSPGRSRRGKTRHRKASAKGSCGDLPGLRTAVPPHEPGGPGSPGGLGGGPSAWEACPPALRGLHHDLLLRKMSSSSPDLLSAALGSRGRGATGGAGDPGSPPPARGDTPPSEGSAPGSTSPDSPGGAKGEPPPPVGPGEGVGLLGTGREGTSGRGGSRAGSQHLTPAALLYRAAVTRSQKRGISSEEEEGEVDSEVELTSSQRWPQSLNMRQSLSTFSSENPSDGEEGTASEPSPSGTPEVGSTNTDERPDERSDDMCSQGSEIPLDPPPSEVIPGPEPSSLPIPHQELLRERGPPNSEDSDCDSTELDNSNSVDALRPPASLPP", "outline": "as §1"}, "CLK3": {"target": "T3, CLK3 (Homo sapiens, UniProt P49761)", "T3 construct": "purchased Reaction Biology Corp", "T3 sequence (P49761 whole entry)": "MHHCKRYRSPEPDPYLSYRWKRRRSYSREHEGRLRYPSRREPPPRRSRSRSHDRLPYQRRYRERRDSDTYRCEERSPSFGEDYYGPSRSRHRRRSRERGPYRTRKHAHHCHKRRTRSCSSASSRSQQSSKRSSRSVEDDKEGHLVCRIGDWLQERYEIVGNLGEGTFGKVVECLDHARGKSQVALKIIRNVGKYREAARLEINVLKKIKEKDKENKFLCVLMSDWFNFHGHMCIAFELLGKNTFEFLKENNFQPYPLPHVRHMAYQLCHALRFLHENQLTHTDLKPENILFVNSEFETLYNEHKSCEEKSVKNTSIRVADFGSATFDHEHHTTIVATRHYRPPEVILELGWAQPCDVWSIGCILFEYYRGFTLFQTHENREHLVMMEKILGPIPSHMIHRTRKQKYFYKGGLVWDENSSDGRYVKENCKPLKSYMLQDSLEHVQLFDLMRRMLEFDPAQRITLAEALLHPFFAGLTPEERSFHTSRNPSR", "outline": "as §1"}, "ALK6/BMPR1B": {"target": "T4, ALK6/BMPR1B (Homo sapiens, UniProt O00238)", "T4 construct": "purchased Reaction Biology Corp", "T4 sequence (O00238 14-502)": "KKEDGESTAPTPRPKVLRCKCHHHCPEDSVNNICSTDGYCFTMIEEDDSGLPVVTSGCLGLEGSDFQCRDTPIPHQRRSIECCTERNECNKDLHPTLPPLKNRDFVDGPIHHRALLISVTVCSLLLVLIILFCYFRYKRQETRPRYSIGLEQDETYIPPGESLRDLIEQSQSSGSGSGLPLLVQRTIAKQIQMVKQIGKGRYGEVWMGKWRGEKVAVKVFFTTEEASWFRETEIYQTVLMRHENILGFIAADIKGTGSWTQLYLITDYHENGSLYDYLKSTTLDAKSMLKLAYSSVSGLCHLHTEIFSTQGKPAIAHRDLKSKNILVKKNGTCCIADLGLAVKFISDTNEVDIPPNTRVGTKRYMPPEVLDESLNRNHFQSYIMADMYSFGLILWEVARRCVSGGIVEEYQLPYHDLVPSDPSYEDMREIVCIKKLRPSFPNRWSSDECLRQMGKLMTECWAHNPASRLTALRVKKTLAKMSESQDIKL", "outline": "as §1"}, "NEK1": {"target": "T5, NEK1 (Homo sapiens, UniProt Q96PY6)", "T5 construct": "purchased Reaction Biology Corp", "T5 sequence (Q96PY6 1-1258)": "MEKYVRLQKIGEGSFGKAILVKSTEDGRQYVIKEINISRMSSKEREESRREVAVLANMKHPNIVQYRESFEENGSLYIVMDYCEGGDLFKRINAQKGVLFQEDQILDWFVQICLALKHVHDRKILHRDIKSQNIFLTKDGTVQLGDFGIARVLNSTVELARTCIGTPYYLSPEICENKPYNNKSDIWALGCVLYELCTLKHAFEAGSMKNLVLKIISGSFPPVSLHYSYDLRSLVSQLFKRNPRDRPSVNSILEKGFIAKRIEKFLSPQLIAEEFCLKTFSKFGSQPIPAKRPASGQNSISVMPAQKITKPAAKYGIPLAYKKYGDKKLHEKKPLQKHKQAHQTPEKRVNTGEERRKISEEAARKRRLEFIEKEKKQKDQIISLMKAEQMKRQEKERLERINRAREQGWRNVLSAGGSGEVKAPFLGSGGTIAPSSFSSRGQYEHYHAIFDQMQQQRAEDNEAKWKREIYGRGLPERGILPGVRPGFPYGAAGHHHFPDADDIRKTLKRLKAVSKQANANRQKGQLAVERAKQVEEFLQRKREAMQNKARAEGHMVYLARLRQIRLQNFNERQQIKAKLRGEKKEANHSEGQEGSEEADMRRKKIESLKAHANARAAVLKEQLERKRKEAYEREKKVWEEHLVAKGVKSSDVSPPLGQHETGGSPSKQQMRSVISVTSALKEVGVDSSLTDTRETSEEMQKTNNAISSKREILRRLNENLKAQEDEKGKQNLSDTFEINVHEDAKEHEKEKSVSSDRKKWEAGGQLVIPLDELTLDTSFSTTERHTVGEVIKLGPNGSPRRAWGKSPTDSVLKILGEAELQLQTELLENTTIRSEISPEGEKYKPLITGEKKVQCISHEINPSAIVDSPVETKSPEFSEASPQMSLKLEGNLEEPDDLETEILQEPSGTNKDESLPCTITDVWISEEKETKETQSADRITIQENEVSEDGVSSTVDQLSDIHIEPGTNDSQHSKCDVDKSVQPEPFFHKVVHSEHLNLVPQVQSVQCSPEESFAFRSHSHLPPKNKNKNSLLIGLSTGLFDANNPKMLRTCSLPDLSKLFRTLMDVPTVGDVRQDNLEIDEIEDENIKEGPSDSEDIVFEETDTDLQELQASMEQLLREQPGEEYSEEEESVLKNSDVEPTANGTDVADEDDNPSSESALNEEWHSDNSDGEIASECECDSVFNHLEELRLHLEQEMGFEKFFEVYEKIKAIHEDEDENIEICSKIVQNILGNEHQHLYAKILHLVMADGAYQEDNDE", "outline": "as §1"}, "PIM2": {"target": "T6, PIM2 (Homo sapiens, UniProt Q9P1W9)", "T6 construct": "purchased Reaction Biology Corp", "T6 sequence (Q9P1W9 whole entry)": "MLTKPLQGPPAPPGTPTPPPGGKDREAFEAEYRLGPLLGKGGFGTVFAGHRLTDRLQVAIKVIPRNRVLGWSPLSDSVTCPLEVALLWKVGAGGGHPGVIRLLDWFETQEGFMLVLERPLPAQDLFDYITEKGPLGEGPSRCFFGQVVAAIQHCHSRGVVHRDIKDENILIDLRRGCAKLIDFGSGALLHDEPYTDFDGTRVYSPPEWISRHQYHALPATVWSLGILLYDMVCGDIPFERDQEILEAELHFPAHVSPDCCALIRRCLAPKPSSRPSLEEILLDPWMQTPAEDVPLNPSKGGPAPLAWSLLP", "outline": "as §1"}, "[1]": {"settings": "read-out: % Enzyme Activity (relative to DMSO controls) AVG"}, "[2]": {"settings": "read-out: % Enzyme Activity (relative to DMSO controls) Data 1"}, "[3]": {"settings": "read-out: % Enzyme Activity (relative to DMSO controls) Data 2"}},
  "note": "Where two headings read alike, the source gives them in different places.",
  "data": [
    {"compound": "CC(C)(C)C(=O)N1N=CC[C@H]1c1ccccc1", "note": "[GSK′963]", "values": [
      {"measurement": "remaining activity at 10 µM", "setting": "WEE1; [1]", "result": 85.6, "unit": "%"},
      {"measurement": "remaining activity at 10 µM", "setting": "WEE1; [2]", "result": 81.9, "unit": "%"},
      {"measurement": "remaining activity at 10 µM", "setting": "WEE1; [3]", "result": 89.2, "unit": "%"},
      {"measurement": "remaining activity at 10 µM", "setting": "DLK/MAP3K12; [1]", "result": 104, "unit": "%"},
      {"measurement": "remaining activity at 10 µM", "setting": "DLK/MAP3K12; [2]", "result": 106, "unit": "%"},
      {"measurement": "remaining activity at 10 µM", "setting": "DLK/MAP3K12; [3]", "result": 102, "unit": "%"},
      {"measurement": "remaining activity at 10 µM", "setting": "CLK3; [1]", "result": 107, "unit": "%"},
      {"measurement": "remaining activity at 10 µM", "setting": "CLK3; [2]", "result": 109, "unit": "%"},
      {"measurement": "remaining activity at 10 µM", "setting": "CLK3; [3]", "result": 105, "unit": "%"},
      {"measurement": "remaining activity at 10 µM", "setting": "ALK6/BMPR1B; [1]", "result": 90.5, "unit": "%"},
      {"measurement": "remaining activity at 10 µM", "setting": "ALK6/BMPR1B; [2]", "result": 91, "unit": "%"},
      {"measurement": "remaining activity at 10 µM", "setting": "ALK6/BMPR1B; [3]", "result": 90, "unit": "%"},
      {"measurement": "remaining activity at 10 µM", "setting": "NEK1; [1]", "result": 97.5, "unit": "%"},
      {"measurement": "remaining activity at 10 µM", "setting": "NEK1; [2]", "result": 97.1, "unit": "%"},
      {"measurement": "remaining activity at 10 µM", "setting": "NEK1; [3]", "result": 98, "unit": "%"},
      {"measurement": "remaining activity at 10 µM", "setting": "PIM2; [1]", "result": 115, "unit": "%"},
      {"measurement": "remaining activity at 10 µM", "setting": "PIM2; [2]", "result": 112, "unit": "%"},
      {"measurement": "remaining activity at 10 µM", "setting": "PIM2; [3]", "result": 118, "unit": "%"}
    ]}
  ]
}
